Measurements from patent US20160067311A1, “USE OF ELSIGLUTIDE TO TREAT GASTROINTESTINAL MUCOSITIS INCLUDING CHEMOTHERAPY-INDUCED DIARRHEA” (Helsinn Healthcare SA, priority 2014, published 2016).
Entries after “also recorded” stand apart in the source; their conditions may differ. Like-named read-outs stand apart in the source and are kept apart here. Peptide text beside a SMILES is read from it.

What was measured:
[1] = human, in vivo
Experimental: (§6) Data on human exposure to elsiglutide generated so far originate from three clinical trials, one performed in healthy subjects (study 06-013) and two in cancer patients (TIDE-09-04, TIDE-11-10). The main objective of the first two studies was the evaluation of the safety, tolerability and maximum tolerated dose (MTD) of ascending elsiglutide doses administered as s.c. (both studies) and i.v. (only study 06-013) bolus injections. In study 06-013 elsiglutide was administered as single i.v. or s.c. bolus, while in study TIDE-09-04 each dose was administered as s.c. bolus on 4 consecutive days. Study TIDE-11-10 was a phase II proof of concept study that mainly evaluated the efficacy of elsiglutide administered as 24 mg daily s.c. bolus injections for 4 consecutive days in preventing CID in patients with colorectal cancer receiving 5-FU based chemotherapy (FOLFOX4 or FOLFIRI regimen). The secondary objectives of all three studies included the evaluation of the pharmacokinetics of elsiglutide and its major metabolites in humans.

[2] = Clinical pharmacokinetics of elsiglutide and its metabolites (studies 06-013, TIDE-09-04, TIDE-11-10); conditions: for dose dependence of pharmacokinetics (Cmax and AUC increases proportional to dose): study TIDE-09-04, s.c. on 4 consecutive days
Experimental: as §6

[3] = test system: patients with colorectal cancer receiving 5-FU based chemotherapy (FOLFOX4 or FOLFIRI regimen); test: Study TIDE-11-10 safety (treatment-emergent adverse events); format: in vivo, human; conditions: elsiglutide group, 69 patients, 24 mg/day s.c. for 4 days
Text: (§1) In studies TIDE-09-04 and TIDE-11-10 the overall pattern of TEAEs was as expected for patients with cancer receiving chemotherapy. In both studies the safety profiles of elsiglutide and placebo were generally similar. More patients in the elsiglutide group reported TEAEs compared to patients in the placebo group, mostly due to injection site reactions in the elsiglutide group.
(§2) In study TIDE-09-04, out of the 28 treated patients (21 on active treatment and 7 on placebo), 9 (32.1%; 7 patients in elsiglutide group and 2 patients in placebo group) experienced at least one TEAE judged by the investigator to be at least possibly related to treatment. In study TIDE-11-10, out of the 138 treated patients (69 on elsiglutide and 69 on placebo), 8 (11.6%), all in the elsiglutide group, had at least one TEAE judged by the investigator to be at least possibly related to study-drug. The most frequent related TEAEs overall in both studies were injection site events (in particular injection site erythema and injection site pain) followed by constipation.
138 patients received a daily dose of 24 mg elsiglutide (or placebo practically identical in composition to the active study drug) via a single s.c. injection for 4 consecutive days, starting from the first day of chemotherapy administration. […] Safety and tolerability were monitored throughout the study.

citrulline = test: Study TIDE-11-10 mean blood concentrations of citrulline (biomarker for intestinal integrity); format: in vivo, human
Experimental: (§3) The formulation used in clinical trials is a lyophilized sterile powder for s.c. administration after reconstitution with sterile water for injection. […] This study also included an evaluation of the levels of citrulline, an amino acid mainly produced by enterocytes, a decrease of which is indicative of an intestinal mucosal damage following chemotherapy. […] In addition, safety and tolerability of the administered repeated doses of elsiglutide were evaluated, and the pharmacokinetics (PK) of elsiglutide and its metabolites ZP2242 and ZP2712 were investigated in a subset of patients in each treatment arm.
(§4) In addition, the proportion of patients who were limited concerning self-care Activities of Daily Living (ADL), the number of stools per day, the number of bowel movements accompanied by urgency per day, and the number of episodes of fecal incontinence per day were summarized for Day 1 to Day 14. Mean blood concentrations of citrulline (a biomarker for intestinal integrity, a decrease being indicative of an intestinal mucosal damage following chemotherapy) were summarized by treatment group for baseline, Day 5, and Day 15 including changes compared to baseline.

rats [4] = test: Preclinical 5-Fluorouracil (5-FU)-induced small intestinal atrophy and diarrhea in rats; conditions: 400 nmol/kg
[5] = test system: healthy subjects and colon and colorectal cancer patients; test: Human safety data across the clinical studies (06-013, TIDE-09-04, TIDE-11-10); format: in vivo
Text: (§5) Safety data in humans are derived from two phase I dose-escalation studies and one phase II study, which included 202 human subjects (36 healthy subjects and 166 colon and colorectal cancer patients receiving 5-FU-based chemotherapy), 117 of whom received active treatment.
as §1

healthy volunteers = test: Study 06-013 dose-escalation, safety, tolerability and MTD, single i.v. or s.c. bolus in healthy subjects; format: in vivo, human
Text: Thirteen of 27 subjects included in this study experienced at least 1 treatment-emergent adverse event (TEAE) judged by the investigator as having either a possible, probable or definitive relation to the study medication. The most commonly reported related TEAEs being postural dizziness, nausea, and injection site erythema.

rats [6] = test: Preclinical irinotecan-induced diarrhea and intestinal damage in rats
[7] = test system: cancer patients receiving 5-FU-based chemotherapy; test: Study TIDE-09-04 dose-escalation, safety and tolerability, s.c. bolus on 4 consecutive days in cancer patients; format: in vivo, human
Text: as §5
In the second dose-escalation study (TIDE-09-04) in cancer patients an independent data safety monitoring board supervised the dose escalation process.
as §2

[8] = test system: patients with colorectal cancer receiving 5-FU based chemotherapy (FOLFOX4 or FOLFIRI regimen); test: Study TIDE-11-10 phase II proof of concept, prevention of chemotherapy induced diarrhea (CID); format: in vivo, human
Experimental: as §3
Methodology: This was a phase II, multicenter, double-blind, randomized, placebo-controlled, two-stage, proof of concept study with an interim futility analysis in colorectal cancer patients receiving 5-FU-based chemotherapy (FOLFOX4 or FOLFIRI) and administered elsiglutide subcutaneously (s.c.) for 4 consecutive days.
138 patients received a daily dose of 24 mg elsiglutide (or placebo practically identical in composition to the active study drug) via a single s.c. injection for 4 consecutive days, starting from the first day of chemotherapy administration. The patients were hospitalized at least until Day 3. Further visits were scheduled for Days 4, 5 and 15 and for a Follow-up Visit on Day 28-32. Safety and tolerability were monitored throughout the study.
Diagnosis and Main Criteria for Inclusion: Female and male patients of at least 18 years of age with confirmed diagnosis of colorectal cancer and an Eastern Cooperative Oncology
Group (ECOG) performance status ≦2, chemotherapy-naïve, and scheduled to receive a FOLFOX4 or FOLFIRI chemotherapy regimen.
Efficacy: The endpoint of primary interest was: • Number of patients experiencing no diarrhea from Day 1 to Day 14
Secondary endpoints were: • Proportion of patients experiencing grades ≧2 diarrhea at each day from Day 1 to Day 14 according to National Cancer Institute Common Terminology Criteria for Adverse Events (NCI-CTCAE v. 4.03); • Worst grade of diarrhea according to NCI-CTCAE at each day from Day 1 to Day 14; • Time to occurrence of diarrhea, defined as the first day in which a grade ≧1 diarrhea was assessed (from Day 1 to day 14); • Number of days with presence of grade ≧1 diarrhea (from Day 1 to Day 14); • Number of days with presence of grade ≧2 diarrhea (from Day 1 to Day 14); • Number of days with presence of at least one bowel movement accompanied by urgency (from Day 1 to 14); • Number of days with presence of at least one episode of fecal incontinence (from Day 1 to 14); • Proportion of patients who required i.v. fluids due to CID (from Day 1 to 14); • Proportion of patients who required changes to the primary therapy (chemotherapy dose reduction, delay or change to regimen) due to CID as of Day 2, Day 14 and as of Day 28; • Proportion of patients who used rescue medication (i.e. medication used for treatment of diarrhea) from Day 1 to Day 14.
as §4

cancer patients = conditions: patients treated with the drug; cited from earlier work
[9] = GLP-2(1-33); DPP IV degradation and renal clearance; cited from earlier work
[10] = Day 1 to Day 14, Full Analysis Set, 24 mg/day, N = 69
[11] = Day 1 to Day 14, Intent-to-treat Set, 24 mg/day, N = 69

CC[C@H](C)[C@H](NC(=O)[C@H](CC(C)C)NC(=O)[C@H](Cc1c[nH]c2ccccc12)NC(=O)[C@H](C)NC(=O)[C@@H](NC(=O)[C@H](Cc1ccccc1)NC(=O)[C@H](CC(=O)O)NC(=O)[C@H](CCCNC(=N)N)NC(=O)[C@H](C)NC(=O)[C@H](C)NC(=O)[C@H](CC(C)C)NC(=O)[C@H](C)NC(=O)[C@H](CC(=O)O)NC(=O)[C@H](CC(C)C)NC(=O)[C@@H](NC(=O)[C@@H](NC(=O)[C@H](CO)NC(=O)[C@H](CC(C)C)NC(=O)[C@H](CCC(=O)O)NC(=O)[C@H](CO)NC(=O)[C@H](CO)NC(=O)[C@H](Cc1ccccc1)NC(=O)[C@H](CO)NC(=O)CNC(=O)[C@H](CCC(=O)O)NC(=O)CNC(=O)[C@@H](N)Cc1c[nH]cn1)[C@@H](C)O)[C@@H](C)CC)[C@@H](C)CC)C(=O)N[C@@H](C)C(=O)N[C@H](C(=O)N[C@@H](CCCCN)C(=O)N[C@H](C(=O)N[C@H](C(=O)N[C@@H](CC(=O)O)C(=O)N[C@@H](CCCCN)C(=O)O)[C@@H](C)O)[C@@H](C)CC)[C@@H](C)O [ZP2242] (H-HGEGSFSSELSTILDALAARDFIAWLIATKITDK-OH; N-terminus assumed)
exposure to metabolite relative to exposure to the parent ZP1846 (elsiglutide) [1]: > 25 fold | AUC of ZP2242 relative to that of ZP2712 ([2]; human, plasma): at least 10 times | half-life ([2]; human, plasma): 6 to 9 h | dose dependence of pharmacokinetics (Cmax and AUC increases proportional to dose) [2]: dose independent

CC[C@H](C)[C@H](NC(=O)[C@H](CC(C)C)NC(=O)[C@H](Cc1c[nH]c2ccccc12)NC(=O)[C@H](C)NC(=O)[C@@H](NC(=O)[C@H](Cc1ccccc1)NC(=O)[C@H](CC(=O)O)NC(=O)[C@H](CCCNC(=N)N)NC(=O)[C@H](C)NC(=O)[C@H](C)NC(=O)[C@H](CC(C)C)NC(=O)[C@H](C)NC(=O)[C@H](CC(=O)O)NC(=O)[C@H](CC(C)C)NC(=O)[C@@H](NC(=O)[C@@H](NC(=O)[C@H](CO)NC(=O)[C@H](CC(C)C)NC(=O)[C@H](CCC(=O)O)NC(=O)[C@H](CO)NC(=O)[C@H](CO)NC(=O)[C@H](Cc1ccccc1)NC(=O)[C@H](CO)NC(=O)CNC(=O)[C@H](CCC(=O)O)NC(=O)CNC(=O)[C@@H](N)Cc1c[nH]cn1)[C@@H](C)O)[C@@H](C)CC)[C@@H](C)CC)C(=O)N[C@@H](C)C(=O)N[C@H](C(=O)N[C@@H](CCCCN)C(=O)N[C@H](C(=O)N[C@H](C(=O)N[C@@H](CC(=O)O)C(=O)N[C@@H](CCCCN)C(=O)N[C@@H](CCCCN)C(=O)N[C@@H](CCCCN)C(=O)N[C@@H](CCCCN)C(=O)N[C@@H](CCCCN)C(=O)N[C@@H](CCCCN)C(N)=O)[C@@H](C)O)[C@@H](C)CC)[C@@H](C)O [elsiglutide] (H-HGEGSFSSELSTILDALAARDFIAWLIATKITDKKKKKK-NH2; N-terminus assumed)
patients with at least one TEAE at least possibly related to study-drug (number) [3]: 8 patients | patients with at least one TEAE at least possibly related to study-drug (percentage) [3]: 11.6% | half-life ([2]; human, plasma, iv): 0.4 h | bioavailability ([2]; human, plasma, subcutaneous): 0.29 | dose dependence of pharmacokinetics (Cmax and AUC increases proportional to dose) [2]: dose independent | change of mean citrulline level between Baseline and Day 5, compared with placebo group (citrulline; Baseline to Day 5): less pronounced decrease | Mean citrulline level at Day 15 (citrulline; Day 15, elsiglutide group, 24 mg/day on days 1-4): 36.5 µmol/L | Mean citrulline level at baseline (citrulline; baseline, elsiglutide group): 33.5 µmol/L | 5-Fluorouracil (5-FU)-induced small intestinal atrophy and diarrhea (rats [4]): prevents | body weight loss (5-FU model) (rats [4]): attenuates | mortality (5-FU model) (rats [4]): decreases | deaths or SAEs related to the study drug ([5]; all three studies): No deaths or SAEs related to the study drug | serious or severe injection site reactions ([5]; studies TIDE-09-04 and TIDE-11-10): No serious or severe injection site reactions | subjects with at least 1 TEAE with possible, probable or definitive relation to study medication (healthy volunteers; of 27 subjects, study 06-013): Thirteen | maximum tolerated dose (MTD) i.v. (healthy volunteers; single i.v. bolus, healthy volunteers, stopping-rule AE at 19.2 mg i.v.): 9.6 mg | maximum tolerated dose (MTD) s.c. (healthy volunteers; single s.c. bolus, healthy volunteers, stopping-rule AE at 6 mg s.c.): 3 mg | body weight loss and lethality (irinotecan model) (rats [6]): decreases | irinotecan induced severe intestinal damage (histopathological observations) (rats [6]): drastically reduces | severity of irinotecan-induced diarrhea, including late-onset diarrhea (rats [6]): decreases | dose limiting toxicities ([7]; 93 mg/day administered for 4 consecutive days): no dose limiting toxicity; also recorded: no dose limiting toxicities | patients with at least one TEAE at least possibly related to treatment ([7]; elsiglutide group, 21 on active treatment, TIDE-09-04): 7 patients | effect on the occurrence of grade ≧2 diarrhea ([8]; 24 mg daily s.c. for 4 consecutive days): preventive effect | evidence of efficacy ([8]; 24 mg/day s.c. on 4 consecutive days): some evidence of efficacy | Worst grade of diarrhea NCI-CTCAE v4.03: Grade 0, % [8, 10]: (62.3) % | Worst grade of diarrhea NCI-CTCAE v4.03: Grade 1, % [8, 10]: (30.4) % | Worst grade of diarrhea NCI-CTCAE v4.03: Grade 2, % [8, 10]: (5.8) % | Worst grade of diarrhea NCI-CTCAE v4.03: Grade 3, % [8, 10]: (1.4) % | Worst grade of diarrhea NCI-CTCAE v4.03: Grade <2, % [8, 10]: (92.8) % | Worst grade of diarrhea NCI-CTCAE v4.03: Grade ≧2, % [8, 10]: (7.2) % | Non-responders, % [8, 11]: (37.7) % | Responders (patients experiencing no diarrhea), % [8, 11]: (62.3) % | superiority of elsiglutide over placebo in number of responders ([8]; overall trial, Stage 1 and Stage 2, 69 patients per group): could not be statistically demonstrated

CS(=O)(=O)CCNCc1ccc(-c2ccc3ncnc(Nc4ccc(OCc5cccc(F)c5)c(Cl)c4)c3c2)o1 [lapatinib]
patients in whom diarrhea occurs (cancer patients): up to 60%

HADGSFSDEMNTILDNLAARDFINWLIQTKITD [GLP-2]
half-life [9]: about 7 minutes
